Results: the supplement of paper PMC4932681

Legend:
Assay in all cases: viability inhibition at highest dose (% inhibition); higher = more growth inhibition
[1] = system: BT-474 Tam1; conditions: 4-OH-tamoxifen in medium 1 µM; 72 h
Method: (§1)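 Percent inhibition of viability (CellTiter-Glo, 72 h) at the highest tested concentration (D5), normalised to DMSO (0%) and 100 µM benzethonium chloride (100%). Resistant lines and the 'in 1µM tamoxifen' arms were tested in 1 µM 4-OH-tamoxifen.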

[2] = system: BT-474 Tam2; conditions: 4-OH-tamoxifen in medium 1 µM; 72 h
Method: as §1

[3] = system: BT-474; conditions: 72 h
Method: as §1

[4] = system: MCF-7 Tam1; conditions: 4-OH-tamoxifen in medium 1 µM; 72 h
Method: as §1

[5] = system: MCF-7; conditions: 72 h
Method: as §1

[6] = system: T-47D Tam1; conditions: 4-OH-tamoxifen in medium 1 µM; 72 h
Method: as §1

[7] = system: T-47D Tam2; conditions: 4-OH-tamoxifen in medium 1 µM; 72 h
Method: as §1

[8] = system: T-47D; conditions: 72 h
Method: as §1

[9] = system: ZR-75-1 Tam1; conditions: 4-OH-tamoxifen in medium 1 µM; 72 h
Method: as §1

[10] = system: ZR-75-1 Tam2; conditions: 4-OH-tamoxifen in medium 1 µM; 72 h
Method: as §1

[11] = system: ZR-75-1; conditions: 72 h
Method: as §1

Compound | viability inhibition at highest dose [1] | viability inhibition at highest dose [2] | viability inhibition at highest dose ([3]; 4-OH-tamoxifen in medium 0 µM) | viability inhibition at highest dose ([3]; 4-OH-tamoxifen in medium 1 µM) | viability inhibition at highest dose [4] | viability inhibition at highest dose ([5]; 4-OH-tamoxifen in medium 0 µM) | viability inhibition at highest dose ([5]; 4-OH-tamoxifen in medium 1 µM) | viability inhibition at highest dose [6] | viability inhibition at highest dose [7] | viability inhibition at highest dose ([8]; 4-OH-tamoxifen in medium 0 µM) | viability inhibition at highest dose ([8]; 4-OH-tamoxifen in medium 1 µM) | viability inhibition at highest dose [9] | viability inhibition at highest dose [10] | viability inhibition at highest dose ([11]; 4-OH-tamoxifen in medium 0 µM) | viability inhibition at highest dose ([11]; 4-OH-tamoxifen in medium 1 µM)
Cc1c(N)nc([C@H](CC(N)=O)NC[C@H](N)C(N)=O)nc1C(=O)N[C@H](C(=O)N[C@H](C)[C@@H](O)[C@H](C)C(=O)N[C@H](C(=O)NCCc1nc(-c2nc(C(=O)NCCC[S+](C)C)cs2)cs1)[C@@H](C)O)[C@@H](OC1OC(CO)C(O)C(O)C1OC1OC(CO)C(O)C(OC(N)=O)C1O)c1cnc[nH]1 (stereo not given in full) [Bleomycin] (drug 10000 nM) | -4.38 | -5.24 | -15.7 | -12 | -1.39 | 12.6 | 11.9 | 23.9 | -17.7 | 19.4 | -2.9 | 12.1 | -0.492 | 22.4 | 9.45
CC(C)Cn1cnc2c(N)nc3ccccc3c21 [Imiquimod] (drug 10000 nM) | 8.22 | 11.8 | 9.75 | 18.4 | 5.29 | -14.1 | 15.9 | 8.8 | 15.3 | 16.1 | 10.4 | -4.93 | -8.03 | 0.432 | 2.78
CO[C@H]1/C=C\C=C(/C)C(=O)NC2=CC(=O)C(NCCN(C)C)=C(C[C@@H](C)C[C@H](OC)[C@H](O)[C@@H](C)/C=C(\C)[C@@H]1OC(N)=O)C2=O [Alvespimycin (17-DMAG)] (drug 1000 nM) | 78.3 | 68.2 | 49 | 76.7 | 30.2 | 65 | 47.8 | 35 | 49.2 | 49.9 | 37.1 | 32.9 | 44.1 | 32.7 | 47
COc1cc(Nc2ncc3c(n2)-c2ccc(Cl)cc2C(c2c(F)cccc2OC)=NC3)ccc1C(=O)O [Alisertib (MLN8237)] (drug 10000 nM) | 13.6 | -5.31 | 11.6 | 34.7 | 16.2 | 17.2 | 7.64 | 38.9 | 41 | 27.3 | 28.5 | -1.42 | 4.01 | -2.57 | 9.24
Nc1nc2[nH]cnc2c(=S)[nH]1 [Thioguanine] (drug 10000 nM) | 28.5 | 24 | 11.1 | 20.1 | 28.6 | 55.7 | 46.2 | 50.6 | 41.7 | 36.5 | 23.8 | 37.8 | 32.6 | 43.6 | 32.5
OC[C@H]1O[C@@H](n2cnc3c2N=CNC[C@H]3O)C[C@@H]1O [Pentostatin] (drug 10000 nM) | 30.3 | 16 | 15.9 | 13.3 | 19.7 | 47.4 | 30.7 | 48 | 35.5 | 45.1 | 28.1 | 46.9 | 40.8 | 48.5 | 41.3
CCC1=C[C@@H]2CN(C1)Cc1c([nH]c3ccccc13)[C@@](C(=O)OC)(c1cc3c(cc1OC)N(C)[C@H]1[C@@](O)(C(=O)OC)[C@H](OC(C)=O)[C@]4(CC)C=CCN5CC[C@]31[C@@H]54)C2 [Vinorelbine (tartrate)] (drug 10000 nM) | 95.6 | 93.8 | 46.9 | 94 | 6.83 | 49.1 | 55.8 | 59.6 | 63 | 6.97 | 31.1 | 29.4 | 29.9 | 26.2 | 36.3
C[C@]12CC[C@@H]3c4ccc(OC(=O)N(CCCl)CCCl)cc4CC[C@H]3[C@@H]1CC[C@@H]2O [Estramustine] (drug 990000 nM) | -8.94 | 1.08 | -9.96 | -0.556 | -4.18 | -17 | -12.1 | -1.27 | 4.35 | -27.1 | -3.37 | 0.469 | -3.72 | -4.2 | 3.75
C=CCNC1=C2C[C@@H](C)C[C@H](OC)[C@H](O)[C@@H](C)/C=C(\C)[C@H](OC(N)=O)[C@@H](OC)/C=C\C=C(/C)C(=O)NC(=CC1=O)C2=O [Tanespimycin  (17-AAG)] (drug 10000 nM) | 74.9 | 74.3 | 52.1 | 81.8 | 35.7 | 70 | 51.1 | 43.6 | 43.5 | 55.6 | 43.3 | 45.8 | 48.8 | 31 | 45.4
COc1cc2/c(=N/c3ccc(Br)cc3F)nc[nH]c2cc1OCC1CCN(C)CC1 [Vandetanib  (ZD6474, Zactima)] (drug 1000 nM) | 22 | 15 | 2.03 | 5.94 | -0.506 | 15.2 | 11.9 | 11.5 | 20.8 | -1.36 | -3.82 | 4.94 | 0.544 | -14.7 | -3
CCCCC(=O)OCC(=O)[C@]1(O)Cc2c(O)c3c(c(O)c2[C@@H](O[C@H]2C[C@H](NC(=O)C(F)(F)F)[C@H](O)[C@H](C)O2)C1)C(=O)c1c(OC)cccc1C3=O [Valrubicin] (drug 10000 nM) | 75.8 | 59.5 | 42.6 | 77.1 | 30.4 | 55 | 77 | 67.9 | 63.2 | 58.2 | 68.2 | 70.3 | 85.4 | 59.8 | 58.9
CC(=O)O[C@H]1C(=O)[C@@]2(C)[C@H]([C@H](OC(=O)c3ccccc3)[C@]3(O)C[C@H](OC(=O)[C@H](O)[C@@H](NC(=O)c4ccccc4)c4ccccc4)C(C)=C1C3(C)C)[C@]1(OC(C)=O)CO[C@@H]1C[C@@H]2O [Paclitaxel] (drug 1000 nM) | 35.2 | 25.5 | 42.7 | 55.7 | -17.1 | 28.8 | 25.8 | 26 | 35.9 | 47 | 15.8 | 4.53 | 0.492 | 26.9 | 4.99
C=CC(=O)N1CCC[C@@H](n2nc(-c3ccc(Oc4ccccc4)cc3)c3c(N)ncnc32)C1 (drug 1000 nM) | 98.2 | 96.5 | 69.5 | 94.6 | -17.1 | -5.41 | 23 | 19.8 | 14.1 | -1.5 | -2.82 | 1.82 | 5.37 | 7.99 | 7.55
Oc1ncnc2[nH]ncc12 [Allopurinol] (drug 10000 nM) | -0.277 | 8.84 | 2.31 | 19.8 | 3.95 | -21.9 | -2.88 | 5 | 4.5 | 0.987 | 3.06 | 8.36 | -2.7 | -2.05 | 9.69
CCN1CCN(c2ccc(Nc3cc(N(C)C(=O)Nc4c(Cl)c(OC)cc(OC)c4Cl)ncn3)cc2)CC1 [NVP-BGJ398] (drug 1000 nM) | 14.4 | 5.89 | -15.6 | 1.03 | 0.341 | -15.8 | 2.98 | 5.28 | -8.43 | -9.62 | 3.56 | -4.94 | -4.28 | -1.6 | -10.3
CNC(=O)c1ccc(N2C(=S)N(c3ccc(C#N)c(C(F)(F)F)c3)C(=O)C23CCC3)cc1F [RD162] (drug 10000 nM) | 13.8 | 13.7 | -4.36 | -3.06 | 3.13 | -8.95 | 8.98 | 3.92 | 3.39 | -17.8 | 17.8 | 2.17 | 1.22 | -4.4 | 3.37
O=C(CCBr)N1CCN(C(=O)CCBr)CC1 [Pipobroman] (drug 10000 nM) | -12.7 | -8.7 | -11.7 | -7.15 | -9.06 | -15.2 | 9.48 | 1.06 | 9.55 | -14.7 | -5.88 | 1.68 | -10.5 | -15 | -9.45
COc1ccc(C2=N[C@@H](c3ccc(Cl)cc3)[C@@H](c3ccc(Cl)cc3)N2C(=O)N2CCNC(=O)C2)c(OC(C)C)c1 [Nutlin-3] (drug 10000 nM) | 33.4 | 29.7 | -7.59 | 11.2 | 16.7 | 28.5 | 45.2 | 15.8 | 20.4 | 1.78 | 1.4 | 31.8 | 42.8 | 36 | 29.7
CC[C@@]1(O)C(=O)OCc2c1cc1n(c2=O)Cc2cc3ccccc3nc2-1 [Camptothecin] (drug 5000 nM) | 4.82 | -15.3 | -9.54 | 0.861 | 49.1 | 85.5 | 87.2 | 49.6 | 35.6 | 61 | 28.7 | 54.1 | 57.9 | 52.9 | 41.1
CC(=O)c1c(C)c2cnc(Nc3ccc(N4CCNCC4)cn3)nc2n(C2CCCC2)c1=O (drug 10000 nM) | 6.18 | 9.88 | 1.33 | 4.19 | 21.2 | 33.1 | 27.9 | 29.5 | 21.5 | 28.1 | 0.74 | 18.7 | 24.2 | 2.14 | 20.6
Cn1c(=O)n(-c2ccc(C(C)(C)C#N)cc2)c2c3cc(-c4cnc5ccccc5c4)ccc3ncc21 [Dactolisib (NVP-BEZ235)] (drug 1000 nM) | 40.8 | 29.2 | 27.6 | 39.4 | 32.4 | 67.7 | 45 | 49.1 | 29.7 | 54.9 | 69.7 | 49.4 | 57 | 51 | 41.8
CC(=O)Nc1ccc(C(=O)Nc2ccccc2N)cc1 [Tacedinaline (CI-994)] (drug 1000 nM) | -4.04 | -4.77 | 1.78 | -3.82 | 0.399 | -10.9 | -11.9 | 6.74 | 15.3 | 0.774 | 11.3 | -0.987 | 6.17 | -0.612 | 5.35
O=C(NC[C@H](O)CO)c1ccncc1Nc1ccc(I)cc1F (drug 10000 nM) | 13.6 | 6.28 | 17.2 | 48 | 12.7 | 35.6 | 19.8 | 35.6 | 34 | 10.4 | -8.51 | 2.34 | 7.84 | 7.13 | 10
O=P1(N(CCCl)CCCl)NCCCO1 (stereo not given) [Clafen (Cyclophosphamide, Endoxan)] (drug 40000 nM) | -0.665 | 2.47 | -4.59 | -11.3 | 1.76 | -6.33 | 11 | -3.65 | 11.9 | -14 | -13.7 | 7.03 | -3.35 | -3.78 | -1.89
COC(=O)C[C@](O)(CCCC(C)(C)O)C(=O)O[C@@H]1C(OC)=C[C@]23CCCN2CCc2cc4c(cc2[C@H]13)OCO4 [Omacetaxine (Homoharringtonine)] (drug 10000 nM) | 82.1 | 73.4 | 19.5 | 75 | 62.7 | 82.1 | 75.5 | 74.5 | 71.4 | 81.1 | 55.6 | 53.7 | 76.1 | 54.1 | 52.2
